# “Also recorded” adds a separate entry of the source.
# Experiments:
# [1] = test system: whole blood from healthy human donors; test: Cytokine secretion in ex vivo human whole blood (ELISA, 24 h); format: cell-based; details: 24 h incubation
# Method: Induction of cytokines from whole blood after treatment and incubation for 24 h. For all figures statistical analyses was made using students T-test, *p<0.05, **p<0.01, ***p<0.005, n=8-10. Test samples were the free TLR7 agonist 1v270 (1v270), the PEGylated cationic formulation with the immune stimulating 1v270 TLR7 agonist (Cationic PEG 1v270 Lip), a non-targeting neutral PEGylated liposome with 1v270 TLR7 agonist (Neutral PEG 1v270 Lip) and a non-PEGylated cationic formulation with 1v270 (Cationic 1v270 Lip). Composition and properties can be seen in Table 1. RPMI is control sample only with addition of media and DMSO is a vehicle control as solvent for 1v270.
# For targeting a liposome to monocytes and antigen presenting cells (APCs) for use in cancer immunotherapy, it is key to boost an appropriate immune response. To analyze this we examined the ability of TLR7 agonist containing liposomes to induce cytokine secretion after targeting as shown in FIG. 2 and example 4, after another 24 h incubation. […]
# To determine the optimal content of 1v270 in cationic PEGylated liposomes, liposomes were prepared with 0, 1, 2.5, 5 and 7.5% 1v270 content. […] The liposomes were incubated as described in example 5 and cytokine secretion of anti-tumor cytokines IL-12p70 and IFNα was measured.
# Balb c mice = test system: Balb c mice
# Method: Balb c mice were injected intravenously with 200 nmol/mouse of the free 1v270 compound, the Cationic PEG 1v270 Lip formulation and the Cationic 1v270 Lip formulation. […] The AUC values calculated for each cytokine were used to determine I) the Toxicity Prediction with the IL-6/IFNα and IL-6/IL-12p70 ratios, and J) the immunogenicity score by the IFNα/IL-10 and IL-12p70/IL-10 ratios shown in arbitrary units. (n=5 mice/group, Students T-test was used, *p<0.05, **p<0.01, *** p<0.005, ns=non significant, error bars show SE).
compound,measurement,setting,value
"CCCCCCCC/C=C\CCCCCCCC(=O)OCC(COP(=O)(O)OCCNC(=O)c1ccc(Cn2c(=O)[nH]c3c(N)nc(OCCOC)nc32)cc1)OC(=O)CCCCCCC/C=C\CCCCCCCC (stereo not shown) [1v270, 2-(4-((6-amino-2-(2-methoxyethoxy)-8-oxo-7H-purin-9(8H)-yl)methyl)benzamido)ethyl 2,3-bis(oleoyloxy)propyl phosphate]",secretion of IL-6,[1]; FIG. 3C,highest; also recorded: most potent
same,secretion of IL-10,[1]; FIG. 3D,significantly higher levels
same,higher toxicity prediction than the cationic PEG 1v270 Lip,"Balb c mice; AUC ratios, FIG. 4I, ratio not given",8 fold
same,induction of IFNα in mouse plasma,"Balb c mice; iv, 200 nmol/mouse, 2, 6 and 24 h",unable to induce IFNα at all; also recorded: no IFNα was measured
